Test results taken from ChEMBL document CHEMBL1141295, “Constituents of Ocimum sanctum with antistress activity” (J Nat Prod, 2007).
Active and inactive are the calls of the source.

Assays:
Type in all cases: functional, organism-based
Design in all cases: dose 40 mg/kg
Rattus norvegicus [1] = experiment: Increase in acute stress induced adrenal gland weight in Sprague-Dawley rat at 40 mg/kg, po
Rattus norvegicus [2] = experiment: Increase in acute stress induced glucose levels in Sprague-Dawley rat at 40 mg/kg, po
Rattus norvegicus [3] = experiment: Increase in acute stress induced plasma creatine levels in Sprague-Dawley rat at 40 mg/kg, po
Rattus norvegicus [4] = experiment: Increase in acute stress induced plasma corticosterone levels in Sprague-Dawley rat at 40 mg/kg, po
Rattus norvegicus [5] = experiment: Decrease in acute stress induced adrenal hypertrophy in Sprague-Dawley rat at 40 mg/kg, po

Measured: Activity

CCCCCCCCCCCCCCCCCCCCCC(=O)O[C@H](COC(=O)CCCCCCCCCCCCCCC)CO[C@H]1O[C@H](CN)[C@@H](O)[C@H](O)[C@H]1O
active: all assays above

C=CCc1ccc(O[C@@H]2O[C@H](CO)[C@@H](O)[C@H](O)[C@H]2O)c(O)c1
active: all assays above

CCCCCCCCCCCCCCCCCC(=O)OC[C@H](CO[C@@H]1O[C@H](CO[C@H]2O[C@H](CO)[C@H](O)[C@H](O)[C@H]2O)[C@H](O)[C@H](O)[C@H]1O)OC(=O)CCCCCCCCCCCCC
active: Rattus norvegicus [1] | Rattus norvegicus [3] | Rattus norvegicus [4]
